The source of these data is patent US10793563B2, “GCN2 inhibitors and uses thereof” (Merck Patent GmbH, priority 2018, dated 2020).

Bounds are passed on as bounds.

Chain of GCN2 kinase (Q9P2K8 whole entry): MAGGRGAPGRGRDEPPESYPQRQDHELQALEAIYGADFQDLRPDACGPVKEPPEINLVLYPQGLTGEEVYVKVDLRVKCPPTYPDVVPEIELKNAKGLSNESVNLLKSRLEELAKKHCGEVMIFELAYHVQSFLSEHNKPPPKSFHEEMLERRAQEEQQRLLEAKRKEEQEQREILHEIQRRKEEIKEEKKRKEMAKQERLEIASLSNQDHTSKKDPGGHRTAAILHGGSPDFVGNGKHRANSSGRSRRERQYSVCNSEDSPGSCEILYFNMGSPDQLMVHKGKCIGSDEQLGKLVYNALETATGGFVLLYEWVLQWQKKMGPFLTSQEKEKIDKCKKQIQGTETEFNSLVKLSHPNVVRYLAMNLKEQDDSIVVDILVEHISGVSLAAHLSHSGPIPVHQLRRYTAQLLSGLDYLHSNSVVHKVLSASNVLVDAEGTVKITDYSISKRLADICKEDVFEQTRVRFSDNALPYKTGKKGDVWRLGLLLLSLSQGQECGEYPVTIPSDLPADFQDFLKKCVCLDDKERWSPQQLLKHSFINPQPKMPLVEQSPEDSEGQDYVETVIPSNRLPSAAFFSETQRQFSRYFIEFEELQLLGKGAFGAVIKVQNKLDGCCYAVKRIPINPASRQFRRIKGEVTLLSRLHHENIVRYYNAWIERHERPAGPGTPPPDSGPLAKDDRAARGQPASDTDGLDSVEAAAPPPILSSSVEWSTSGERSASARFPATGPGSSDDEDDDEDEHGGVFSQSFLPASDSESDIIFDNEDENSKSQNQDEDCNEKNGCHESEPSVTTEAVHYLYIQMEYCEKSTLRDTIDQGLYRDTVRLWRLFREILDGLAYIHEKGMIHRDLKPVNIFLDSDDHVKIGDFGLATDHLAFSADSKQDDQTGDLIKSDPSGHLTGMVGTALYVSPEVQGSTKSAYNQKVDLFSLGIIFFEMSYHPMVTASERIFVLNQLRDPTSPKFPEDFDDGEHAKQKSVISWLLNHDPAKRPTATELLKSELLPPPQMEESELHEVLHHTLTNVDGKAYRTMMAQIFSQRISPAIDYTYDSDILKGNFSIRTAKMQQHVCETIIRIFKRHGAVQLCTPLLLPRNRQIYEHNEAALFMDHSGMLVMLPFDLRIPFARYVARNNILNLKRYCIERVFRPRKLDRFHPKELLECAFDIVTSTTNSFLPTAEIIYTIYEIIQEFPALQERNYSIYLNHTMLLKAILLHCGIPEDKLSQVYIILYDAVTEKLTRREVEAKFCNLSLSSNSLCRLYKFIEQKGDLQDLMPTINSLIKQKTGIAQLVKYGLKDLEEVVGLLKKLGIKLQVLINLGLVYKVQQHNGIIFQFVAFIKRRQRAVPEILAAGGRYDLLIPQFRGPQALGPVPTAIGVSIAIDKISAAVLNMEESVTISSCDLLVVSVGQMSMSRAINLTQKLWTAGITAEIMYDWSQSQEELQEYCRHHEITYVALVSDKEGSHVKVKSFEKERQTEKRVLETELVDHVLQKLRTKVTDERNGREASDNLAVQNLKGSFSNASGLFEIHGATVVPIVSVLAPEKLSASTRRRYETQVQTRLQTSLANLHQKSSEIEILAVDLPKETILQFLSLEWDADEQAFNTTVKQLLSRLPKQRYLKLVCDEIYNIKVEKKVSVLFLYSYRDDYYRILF

The target in one experiment is intracellular GCN2 (phosphorylation of the GCN2 substrate eIF2α) (Homo sapiens (Human), UniProt Q9P2K8). As to the kind of experiment: GCN2 Cellular Inhibition Assay (AlphaScreen SureFire P-eIF2α Ser51, borrelidin-treated U2OS cells). In kind it is cell-based. The conditions noted are these: 10 μM borrelidin, 1 h, phosphorylated eIF2α Ser51, read-out: GCN2 Biomarker (IC50). On the procedure: Compounds can be screened for their ability to inhibit intracellular GCN2 using an AlphaScreen assay (Perkin Elmer) to detect phosphorylation of the GCN2 substrate eIF2α in borrelidin-treated cells. U2OS cells are plated at 5,000 cells per well in 384-well white polystyrene plates (Corning 3570) in McCoy's 5A media (GIBCO 26600-023) supplemented with 10% foetal bovine serum (SAFC 12103C), Penicillin/Streptomycin solution diluted 1:100 (Sigma P0781), and 2 mM L-glutamine (Sigma G7513), and allowed to adhere overnight at 37° C. in 5% CO2. Compounds are then added to the cell media from a final concentration of 40 μM in 4-fold serial dilutions. Borrelidin (FluoroChem M01440) is immediately added to the wells to a final concentration of 10 μM and the cells are incubated for 1 h at 37° C. in 5% CO2. After 1 h of treatment with borrelidin, the media is removed, and the cells are lysed with lysis buffer (TGR BioSceinces TGRLB) at ambient temperature.
Chain of intracellular GCN2 (phosphorylation of the GCN2 substrate eIF2α) (Q9P2K8 whole entry): as above
An AlphaScreen SureFire P-eIF2α (Ser51) assay kit (Perkin Elmer TGREIF2S) was used to measure levels of eIF2α phosphorylated on Serine 51. Anti-phosphorylated eIF2α Ser51 antibody-linked acceptor beads (TGR BioScience 6760617) are added to the cell homogenate (diluted 1:250 into a mixture of activation (TGR BioScience TGRAB) and reaction buffer (TGR BioScience TGREIF2S) prepared immediately before use). The plate is then incubated for 2 h at ambient temperature in the dark. Anti-eIF2α antibody-linked donor beads (TGR BioScience 6760617) were then added (diluted 1:100 in dilution buffer (TGR BioScience TGRDB) prepared immediately before use). The plate is then incubated overnight at ambient temperature in the dark.
Plates are analyzed on an Alpha Technology-compatible PHERAstar FS plate reader (BMG Labtech Version 1.14) to quantify phosphorylated eIF2α Ser51 levels. The percentage inhibition of phosphorylated eIF2α is calculated by comparison to control wells stimulated with borrelidin alone.
Background: Alpha assays give light when donor and acceptor beads are brought close together.
As to `C[C@H]1C[C@@H](c2cn[nH]c2)CN(c2nccc(-c3cnc4ccc(C(F)(F)F)cn34)n2)C1` (mixture of isomers) [I-114, 2-[3-methyl-5-(1H-pyrazol-4-yl)piperidin-1-yl]-4-[6-(trifluoromethyl)imidazo[1,2-a]pyridin-3-yl]pyrimidine], the IC50 is below 500 nM. The same measure, in the same setting: the same measure for `Cc1[nH]ncc1[C@H]1CN(c2nccc(-c3cnc4ccc(C(F)(F)F)cn34)n2)C[C@@H](C)O1` (relative stereo) [I-115, cis-2-Methyl-6-(3-methyl-1H-pyrazol-4-yl)-4-{4-[6-(trifluoromethyl)imidazo[1,2-a]pyridin-3-yl]pyrimidin-2-yl}morpholine]: below 500 nM; for `C[C@@H]1CN(c2nccc(-c3cnc4ccc(C(F)(F)F)cn34)n2)C[C@H](c2cn[nH]c2)O1` (relative stereo) [I-117, cis-2-Methyl-6-(1H-pyrazol-4-yl)-4-{4-[6-(trifluoromethyl)imidazo[1,2-a]pyridin-3-yl]pyrimidin-2-yl}morpholine]: below 500 nM.

The next experiment addresses GCN2 kinase (Homo sapiens (Human), UniProt Q9P2K8). The experiment can be described thus: GCN2 Enzyme Inhibition Assay (Transcreener ADP2 fluorescence polarization). In kind it is biochemical. The conditions noted are these: 280 μM ATP, 200 μM (RS)7 peptide, 4 nM GCN2, 25° C. A digest of the protocol: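 Transcreener ADP2 fluorescence polarization detection of ADP from 4 nM GCN2 with (RS)7 substrate in 25 mM Tris-HCl pH 7.5, 50 mM NaCl, 10 mM MgCl2, 1 mM DTT. Compound pre-incubated with enzyme 10 min at 25 °C; reaction started by ATP, run 1 h at 25 °C. IC50 and Ki(app) by tight-binding fit.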
Background: In fluorescence polarisation assays a small probe gives low polarisation when free and higher when bound to something large.
For the compound `Cc1nn(C)cc1C(=O)N1CCN(c2ccnc(-c3cnc4ccc(C(F)(F)F)cn34)n2)C[C@@H]1C` [I-480, (S)-(1,3-dimethyl-1H-pyrazol-4-yl)(2-methyl-4-(2-(6-(trifluoromethyl)imidazo[1,2-a]pyridin-3-yl)pyrimidin-4-yl)piperazin-1-yl)methanone], the IC50 was in the range of 100 to 1000 nM. As to `C[C@@H]1CN(c2ccnc(-c3cnc4ccc(C(F)(F)F)cn34)n2)C[C@H](C)N1C(=O)c1ccncc1` [I-483, (cis-2,6-dimethyl-4-(2-(6-(trifluoromethyl)imidazo[1,2-a]pyridin-3-yl)pyrimidin-4-yl)piperazin-1-yl)(pyridin-4-yl)methanone], the IC50 was 100 to 1000 nM.

Consider `C[C@@H]1CN(c2ccnc(-c3cnc4ccc(C(F)(F)F)cn34)n2)C[C@H](C)N1C(=O)C1(C)CC1` [I-486, (cis-2,6-dimethyl-4-(2-(6-(trifluoromethyl)imidazo[1,2-a]pyridin-3-yl)pyrimidin-4-yl)piperazin-1-yl)(1-methylcyclopropyl)methanone], for which the IC50 lay in the range of 100 to 1000 nM. Compound `O=C(C1CCOCC1)N1CCN(c2ccnc(-c3cnc4ccc(C(F)(F)F)cn34)n2)CC1c1cn[nH]c1` (centres unmarked) [I-487, (2-(1H-pyrazol-4-yl)-4-(2-(6-(trifluoromethyl)imidazo[1,2-a]pyridin-3-yl)pyrimidin-4-yl)piperazin-1-yl)(tetrahydro-2H-pyran-4-yl)methanone] registered an IC50 of 100 to 1000 nM.

As to `O=C(N1CCN(c2ccnc(-c3cnc4ccc(C(F)(F)F)cn34)n2)CC1c1cn[nH]c1)C1(C(F)F)CC1` (centres unmarked) [I-488, (2-(1H-pyrazol-4-yl)-4-(2-(6-(trifluoromethyl)imidazo[1,2-a]pyridin-3-yl)pyrimidin-4-yl)piperazin-1-yl)(1-(difluoromethyl)cyclopropyl)methanone], the IC50 was in the range of 10 to 100 nM.

`CS(=O)(=O)NCC1NCCN(c2ccnc(-c3cnc4ccc(C(F)F)cn34)n2)C1C(F)(F)F` (centres unmarked) [I-496, N-((4-(2-(6-(difluoromethyl)imidazo[1,2-a]pyridin-3-yl)pyrimidin-4-yl)-3-(trifluoromethyl)piperazin-2-yl)methyl)methanesulfonamide] showed an IC50 of 100 to 1000 nM. Still for that read-out and setting: the result for `Cc1noc([C@H]2CN(c3ccnc(-c4cnc5ccc(C(F)F)cn45)n3)C[C@@H](C)O2)n1` [I-497, (2R,6R)-4-(2-(6-(difluoromethyl)imidazo[1,2-a]pyridin-3-yl)pyrimidin-4-yl)-2-methyl-6-(3-methyl-1,2,4-oxadiazol-5-yl)morpholine] reads 100 to 1000 nM. Same read-out and setting: the same measure for `Cc1noc([C@@H]2CN(c3ccnc(-c4cnc5ccc(C(F)F)cn45)n3)C[C@H](C)O2)n1` [I-498, (2S,6S)-4-(2-(6-(difluoromethyl)imidazo[1,2-a]pyridin-3-yl)pyrimidin-4-yl)-2-methyl-6-(3-methyl-1,2,4-oxadiazol-5-yl)morpholine]: 10 to 100 nM.

Turning to `CC1(O)CC(C(=O)N2CCN(c3ccnc(-c4cnc5ccc(C(F)(F)F)cn45)n3)CC2c2cn[nH]c2)C1` (centres unmarked) [I-509, (2-(1H-pyrazol-4-yl)-4-(2-(6-(trifluoromethyl)imidazo[1,2-a]pyridin-3-yl)pyrimidin-4-yl)piperazin-1-yl)(3-hydroxy-3-methylcyclobutyl)methanone], the IC50 was in the range of 100 to 1000 nM.

`C[C@@H]1CN(c2ccnc(-c3cnc4ccc(C(F)(F)F)cn34)n2)C[C@H](C)N1C(=O)c1cc2n(n1)CCOC2` [I-513, (6,7-dihydro-4H-pyrazolo[5,1-c][1,4]oxazin-2-yl)(cis-2,6-dimethyl-4-(2-(6-(trifluoromethyl)imidazo[1,2-a]pyridin-3-yl)pyrimidin-4-yl)piperazin-1-yl)methanone] showed a concentration for half-maximal inhibition (IC50) of 100 to 1000 nM.

Regarding `CC(C)(O)C(=O)N1CCN(c2ccnc(-c3cnc4ccc(C(F)(F)F)cn34)n2)CC1c1cn[nH]c1` (centres unmarked) [I-514, 1-(2-(1H-pyrazol-4-yl)-4-(2-(6-(trifluoromethyl)imidazo[1,2-a]pyridin-3-yl)pyrimidin-4-yl)piperazin-1-yl)-2-hydroxy-2-methylpropan-1-one], the IC50 fell in the range of 100 to 1000 nM. On the same count and under the same terms, the result for `Cc1oncc1C(=O)N1CCN(c2ccnc(-c3cnc4ccc(C(F)(F)F)cn34)n2)CC1c1cn[nH]c1` (centres unmarked) [I-515, (2-(1H-pyrazol-4-yl)-4-(2-(6-(trifluoromethyl)imidazo[1,2-a]pyridin-3-yl)pyrimidin-4-yl)piperazin-1-yl)(5-methylisoxazol-4-yl)methanone] reads 100 to 1000 nM; that for `Cc1nonc1C(=O)N1CCN(c2ccnc(-c3cnc4ccc(C(F)(F)F)cn34)n2)CC1c1cn[nH]c1` (centres unmarked) [I-518, (2-(1H-pyrazol-4-yl)-4-(2-(6-(trifluoromethyl)imidazo[1,2-a]pyridin-3-yl)pyrimidin-4-yl)piperazin-1-yl)(4-methyl-1,2,5-oxadiazol-3-yl)methanone], 10 to 100 nM. Compound `Cc1noc(C)c1C(=O)N1CCN(c2ccnc(-c3cnc4ccc(C(F)(F)F)cn34)n2)CC1c1cn[nH]c1` (centres unmarked) [I-519, (2-(1H-pyrazol-4-yl)-4-(2-(6-(trifluoromethyl)imidazo[1,2-a]pyridin-3-yl)pyrimidin-4-yl)piperazin-1-yl)(3,5-dimethylisoxazol-4-yl)methanone] registered a half-inhibitory concentration (IC50) of 100 to 1000 nM.

`C[C@H]1[C@@H](c2cn[nH]c2)NCCN1c1ccnc(-c2cnc3ccc(C(F)(F)F)cn23)n1` [I-534, 3-(4-((2 S,3R)-2-methyl-3-(1H-pyrazol-4-yl)piperazin-1-yl)pyrimidin-2-yl)-6-(trifluoromethyl)imidazo[1,2-a]pyridine] came in with a 50% inhibitory concentration (IC50) of 100 to 1000 nM. On the same count and under the same terms, the result for `C[C@H]1[C@H](c2cn[nH]c2)NCCN1c1ccnc(-c2cnc3ccc(C(F)(F)F)cn23)n1` [I-535, 3-(4-((2S,3 S)-2-methyl-3-(1H-pyrazol-4-yl)piperazin-1-yl)pyrimidin-2-yl)-6-(trifluoromethyl)imidazo[1,2-a]pyridine] reads 100 to 1000 nM; that for `Cc1[nH]ncc1[C@H]1CN(c2ccnc(-c3cnc4cc(F)c(Cl)cn34)n2)C[C@H](C)O1` [I-539, (2S,6S)-4-(2-(6-chloro-7-fluoroimidazo[1,2-a]pyridin-3-yl)pyrimidin-4-yl)-2-methyl-6-(5-methyl-1H-pyrazol-4-yl)morpholine], 10 to 100 nM.

`FC(F)(F)c1ccc2ncc(-c3ccnc(N4CCN(C[C@H]5CCCOC5)[C@@H](c5cn[nH]c5)C4)n3)n2c1` [I-542, 3-(2-((S)-3-(1H-pyrazol-4-yl)-4-(((R)-tetrahydro-2H-pyran-3-yl)methyl)piperazin-1-yl)pyrimidin-4-yl)-6-(trifluoromethyl)imidazo[1,2-a]pyridine] showed a 50% inhibitory concentration (IC50) below 10 nM. On the same count and under the same terms, the result for `Cc1oncc1C(=O)N1CCN(c2ccnc(-c3cnc4ccc(C(F)(F)F)cn34)n2)C[C@@H]1c1cn[nH]c1` [I-549, (S)-(2-(1H-pyrazol-4-yl)-4-(2-(6-(trifluoromethyl)imidazo[1,2-a]pyridin-3-yl)pyrimidin-4-yl)piperazin-1-yl)(5-methylisoxazol-4-yl)methanone] reads 100 to 1000 nM; that for `Cc1oncc1C(=O)N1CCN(c2ccnc(-c3cnc4ccc(C(F)(F)F)cn34)n2)C[C@H]1c1cn[nH]c1` [I-550, (R)-(2-(1H-pyrazol-4-yl)-4-(2-(6-(trifluoromethyl)imidazo[1,2-a]pyridin-3-yl)pyrimidin-4-yl)piperazin-1-yl)(5-methylisoxazol-4-yl)methanone], 100 to 1000 nM.

One may read the IC50 as the midpoint of a concentration-inhibition curve.
